Measured values reported in patent US9220264B2, “Multimeric forms of antimicrobial peptides” (Singapore Health Services Pte Ltd., priority 2008, dated 2015).
≈ marks a conversion by molar mass, not a printed value. Bridge positions count the residues as written; N and C are the ends. Peptide text beside a SMILES is read from it. I, II: the chains in the order shown.

Experiments:
[1] = tested on: Candida albicans ATCC10231; type: cell-based
Protocol: (§1) MICs was determined by broth macrodilution method modified from that described by the National Committee for Clinical Laboratory Standards (NCCL). The Mueller Hinton Broth (MHB) at ⅙ strength and without addition of Ca^2+ and Mg^2+ was used for dilution. Serial twofold dilutions of V2 dimer solution was prepared in MHB (⅙ strength) in test tubes. 1 ml of inoculum of test organisms in MHB (⅙ strength) was added to 1 ml of each dilution of V2 dimer to yield as final concentration of 10^4 to 10^5 colony forming units/ml in each test tube. The tubes were incubated at 35° C. for 16 to 20 hours. A positive control containing only the broth and organism, and a negative control tube containing only the broth were also incubated in parallel to the test samples. The above was repeated for each different test organism in separate experiments. The MIC of V2 dimer peptide for each clinical isolate or reference organism was read as the lowest concentration of peptide that inhibited visible growth of the test organism.
(§2) The MIC was also determined for other peptides and compared to gentamicin.

[2] = tested on: Clinical Pseudomonas aeruginosa 07DM 023257 Source: Eye; type: cell-based; conditions: Clinical 07DM 023257 Source: Eye
Protocol: as §1, §2

[3] = tested on: Clinical Pseudomonas aeruginosa PAE 230 DR4877/07 Source: Sputum; type: cell-based; conditions: Clinical PAE 230 DR4877/07 Source: Sputum
Protocol: as §1, §2

[4] = tested on: Clinical Pseudomonas aeruginosa PAE 240 DU14476/07 Source: Urine; type: cell-based; conditions: Clinical PAE 240 DU14476/07 Source: Urine
Protocol: as §1, §2

[5] = tested on: Clinical Pseudomonas aeruginosa PAE 249 DM15013 Source: Wound; type: cell-based; conditions: Clinical PAE 249 DM15013 Source: Wound
Protocol: as §1, §2

[6] = tested on: Clinical Pseudomonas aeruginosa 07DM023376 Source: Eye; type: cell-based; conditions: Clinical 07DM023376 Source: Eye
Protocol: as §1, §2

[7] = tested on: Clinical Pseudomonas aeruginosa DM 023155 Source: Eye; type: cell-based; conditions: Clinical DM 023155 Source: Eye
Protocol: as §1, §2

[8] = tested on: Clinical Staphylococcus aureus DM4001 Source: Eye; type: cell-based
Protocol: as §1, §2

[9] = tested on: Clinical Pseudomonas aeruginosa DM 023104 Source: Eye; type: cell-based; conditions: Clinical DM 023104 Source: Eye
Protocol: as §1, §2

[10] = tested on: Clinical Pseudomonas aeruginosa PAE 239 DM5790/07 Source: Wound; type: cell-based; conditions: Clinical PAE 239 DM5790/07 Source: Wound
Protocol: as §1, §2

[11] = tested on: Escherichia coli ATCC25922; type: cell-based
Protocol: as §1, §2

[12] = tested on: Clinical Escherichia coli DU46381R Source: Urine; type: cell-based
Protocol: as §1, §2

[13] = tested on: Fusarium solani ATCC 36031; type: cell-based
Protocol: as §1, §2

[14] = tested on: Clinical Escherichia coli DB16027 Source: Blood; type: cell-based; conditions: Clinical DB16027 Source: Blood
Protocol: as §1, §2

[15] = tested on: Clinical Cadida albicans DF2672R Source: Urine; type: cell-based, Candida albicans
Protocol: as §1, §2

Row | MIC [1] [µg/mL] | MIC [2] [µg/mL] | MIC [3] [µg/mL] | MIC [4] [µg/mL] | MIC [5] [µg/mL] | MIC [6] [µg/mL] | MIC [7] [µg/mL] | MIC [8] [µg/mL] | MIC [9] [µg/mL] | MIC [10] [µg/mL] | MIC [11] [µg/mL] | MIC [12] [µg/mL] | MIC [13] [µg/mL] | MIC [14] [µg/mL] | MIC [15] [µg/mL] | Compound
1 | 12.5 (≈ 4.74 µM) | 12.5 (≈ 4.74 µM) | 12.5 (≈ 4.74 µM) | 12.5 (≈ 4.74 µM) | 6.25 (≈ 2.37 µM) | 25 (≈ 9.47 µM) | 12.5 (≈ 4.74 µM) | 12.5 (≈ 4.74 µM) | 12.5 (≈ 4.74 µM) | 12.5 (≈ 4.74 µM) | 25 (≈ 9.47 µM) | 6.25 (≈ 2.37 µM) | 12.5 (≈ 4.74 µM) | 12.5 (≈ 4.74 µM) | 12.5 (≈ 4.74 µM) | N=C(N)NCCC[C@H](NC(=O)CNC(=O)[C@@H](N)CCCNC(=N)N)C(=O)N[C@@H](CCCCN)C(=O)N[C@@H](Cc1c[nH]c2ccccc12)C(=O)N[C@@H](Cc1c[nH]c2ccccc12)C(=O)N[C@@H](CCCNC(=N)N)C(=O)N[C@@H](CCCNC(=N)N)C(=O)NCCCC[C@H](NC(=O)[C@H](CCCNC(=N)N)NC(=O)[C@H](CCCNC(=N)N)NC(=O)[C@H](Cc1c[nH]c2ccccc12)NC(=O)[C@H](Cc1c[nH]c2ccccc12)NC(=O)[C@H](CCCCN)NC(=O)[C@H](CCCNC(=N)N)NC(=O)CNC(=O)[C@@H](N)CCCNC(=N)N)C(=O)N[C@@H](CCCCN)C(=O)O [W2-dimer] (I: H-RGRKWWRRKK-OH / II: H-RGRKWWRR; amide I:9-II:C; N-terminus assumed)
2 | 25 (≈ 9.82 µM) | 12.5 (≈ 4.91 µM) | 12.5 (≈ 4.91 µM) | 6.25 (≈ 2.45 µM) | 12.5 (≈ 4.91 µM) | 25 (≈ 9.82 µM) | 25 (≈ 9.82 µM) | 12.5 (≈ 4.91 µM) | 12.5 (≈ 4.91 µM) | 12.5 (≈ 4.91 µM) | 12.5 (≈ 4.91 µM) | 12.5 (≈ 4.91 µM) | 12.5 (≈ 4.91 µM) | 6.25 (≈ 2.45 µM) | 12.5 (≈ 4.91 µM) | N=C(N)NCCC[C@H](NC(=O)CNC(=O)[C@@H](N)CCCNC(=N)N)C(=O)N[C@@H](CCCCN)C(=O)N[C@@H](Cc1ccc(O)cc1)C(=O)N[C@@H](Cc1ccc(O)cc1)C(=O)N[C@@H](CCCNC(=N)N)C(=O)N[C@@H](CCCNC(=N)N)C(=O)NCCCC[C@H](NC(=O)[C@H](CCCNC(=N)N)NC(=O)[C@H](CCCNC(=N)N)NC(=O)[C@H](Cc1ccc(O)cc1)NC(=O)[C@H](Cc1ccc(O)cc1)NC(=O)[C@H](CCCCN)NC(=O)[C@H](CCCNC(=N)N)NC(=O)CNC(=O)[C@@H](N)CCCNC(=N)N)C(=O)N[C@@H](CCCCN)C(=O)O [Y2-dimer] (I: H-RGRKYYRRKK-OH / II: H-RGRKYYRR; amide I:9-II:C; N-terminus assumed)
3 | 12.5 (≈ 2.74 µM) | 12.5 (≈ 2.74 µM) | 12.5 (≈ 2.74 µM) | 6.25 (≈ 1.37 µM) | 6.25 (≈ 1.37 µM) | 6.25 (≈ 1.37 µM) | 6.25 (≈ 1.37 µM) | 12.5 (≈ 2.74 µM) | 6.25 (≈ 1.37 µM) | 12.5 (≈ 2.74 µM) | 12.5 (≈ 2.74 µM) | 6.25 (≈ 1.37 µM) | 3.125 (≈ 0.685 µM) | 6.25 (≈ 1.37 µM) | 12.5 (≈ 2.74 µM) | CC(C)[C@H](NC(=O)[C@H](CCCCN)NC(=O)[C@H](CCCNC(=N)N)NC(=O)CNC(=O)[C@@H](N)CCCNC(=N)N)C(=O)N[C@H](C(=O)N[C@@H](CCCNC(=N)N)C(=O)N[C@@H](CCCNC(=N)N)C(=O)NCCCC[C@H](NC(=O)[C@H](CCCNC(=N)N)NC(=O)[C@H](CCCNC(=N)N)NC(=O)[C@@H](NC(=O)[C@@H](NC(=O)[C@H](CCCCN)NC(=O)[C@H](CCCNC(=N)N)NC(=O)CNC(=O)[C@@H](N)CCCNC(=N)N)C(C)C)C(C)C)C(=O)NCCCC[C@H](NC(=O)[C@H](CCCCNC(=O)[C@H](CCCNC(=N)N)NC(=O)[C@H](CCCNC(=N)N)NC(=O)[C@@H](NC(=O)[C@@H](NC(=O)[C@H](CCCCN)NC(=O)[C@H](CCCNC(=N)N)NC(=O)CNC(=O)[C@@H](N)CCCNC(=N)N)C(C)C)C(C)C)NC(=O)[C@H](CCCNC(=N)N)NC(=O)[C@H](CCCNC(=N)N)NC(=O)[C@@H](NC(=O)[C@@H](NC(=O)[C@H](CCCCN)NC(=O)[C@H](CCCNC(=N)N)NC(=O)CNC(=O)[C@@H](N)CCCNC(=N)N)C(C)C)C(C)C)C(=O)N[C@@H](CCCCN)C(=O)O)C(C)C [V2-tetramer] (I: H-RGRKVVRRKKK-OH / II: H-RGRKVVRRK / III: H-RGRKVVRR / IV: H-RGRKVVRR; amide I:9-IV:C, I:10-II:C, II:9-III:C; N-terminus assumed)
4 | 25 (≈ 21.7 µM) | >50 | >50 | 6.25 (≈ 5.41 µM) | >50 | 50 (≈ 43.3 µM) | >50 | >50 | >50 | >50 | 25 (≈ 21.7 µM) | 25 (≈ 21.7 µM) | 50 (≈ 43.3 µM) | 25 (≈ 21.7 µM) | 50 (≈ 43.3 µM) | N=C(N)NCCC[C@H](NC(=O)[C@H](CCCNC(=N)N)NC(=O)[C@H](Cc1ccc(O)cc1)NC(=O)[C@H](Cc1ccc(O)cc1)NC(=O)[C@H](CCCCN)NC(=O)[C@H](CCCNC(=N)N)NC(=O)CNC(=O)[C@@H](N)CCCNC(=N)N)C(=O)O [Y2-8AA, RGRKYYRR] (H-RGRKYYRR-OH; N-terminus and C-terminus assumed)
5 | 12.5 (≈ 10.4 µM) | >50 | >50 | 12.5 (≈ 10.4 µM) | 50 (≈ 41.7 µM) | 25 (≈ 20.8 µM) | 50 (≈ 41.7 µM) | 12.5 (≈ 10.4 µM) | 25 (≈ 20.8 µM) | >50 | 12.5 (≈ 10.4 µM) | 6.25 (≈ 5.21 µM) | 25 (≈ 20.8 µM) | 6.25 (≈ 5.21 µM) | 12.5 (≈ 10.4 µM) | N=C(N)NCCC[C@H](NC(=O)[C@H](CCCNC(=N)N)NC(=O)[C@H](Cc1c[nH]c2ccccc12)NC(=O)[C@H](Cc1c[nH]c2ccccc12)NC(=O)[C@H](CCCCN)NC(=O)[C@H](CCCNC(=N)N)NC(=O)CNC(=O)[C@@H](N)CCCNC(=N)N)C(=O)O [W2-8AA, RGRKWWRR] (H-RGRKWWRR-OH; N-terminus and C-terminus assumed)
6 | 12.5 (≈ 8.44 µM) | >50 | >50 | 25 (≈ 16.9 µM) | 50 (≈ 33.8 µM) | >50 | 25 (≈ 16.9 µM) | 12.5 (≈ 8.44 µM) | 50 (≈ 33.8 µM) | 50 (≈ 33.8 µM) | 12.5 (≈ 8.44 µM) | 12.5 (≈ 8.44 µM) | 12.5 (≈ 8.44 µM) | 6.25 (≈ 4.22 µM) | 25 (≈ 16.9 µM) | N=C(N)NCCC[C@H](NC(=O)CNC(=O)[C@@H](N)CCCNC(=N)N)C(=O)N[C@@H](CCCCN)C(=O)N[C@@H](Cc1ccc(O)cc1)C(=O)N[C@@H](Cc1ccc(O)cc1)C(=O)N[C@@H](CCCNC(=N)N)C(=O)N[C@@H](CCCNC(=N)N)C(=O)N[C@@H](Cc1ccc(O)cc1)C(=O)N[C@@H](Cc1ccc(O)cc1)C(=O)O [Y4 monomer, RGRKYYRRYY] (H-RGRKYYRRYY-OH; N-terminus and C-terminus assumed)
7 | >50 | >50 | >50 | 25 (≈ 24.4 µM) | >50 | >50 | >50 | >50 | >50 | >50 | >50 | 50 (≈ 48.7 µM) | >100 | >50 | >50 | CC(C)[C@H](NC(=O)[C@H](CCCCN)NC(=O)[C@H](CCCNC(=N)N)NC(=O)CNC(=O)[C@@H](N)CCCNC(=N)N)C(=O)N[C@H](C(=O)N[C@@H](CCCNC(=N)N)C(=O)N[C@@H](CCCNC(=N)N)C(=O)O)C(C)C [V2-8AA, RGRKVVRR] (H-RGRKVVRR-OH; N-terminus and C-terminus assumed)
